Test results published in paper PMC5218480 (PLoS ONE, 2017).

System: MV-4-11 cells
Assay: Gene expression microarray analysis (Affymetrix PrimeView) and GSEA
Type: cell-based, human
Design: RFU PODN (11730768_x_at) / Fold change /veh PODN (11730768_x_at) / RFU LINC00158 (11744669_a_at) / Fold change /veh LINC00158 (11744669_a_at) / RFU DUSP10 (11751237_a_at) / Fold change /veh DUSP10 (11751237_a_at) / RFU ID3 (11757404_x_at) / Fold change /veh ID3 (11757404_x_at) / RFU PLEKHG5 (11737974_s_at) / Fold change /veh PLEKHG5 (11737974_s_at) / RFU LRRC4B (11730491_at) / Fold change /veh LRRC4B (11730491_at) / RFU GIMAP4 (11747438_a_at) / Fold change /veh GIMAP4 (11747438_a_at) / RFU KRT8 (11758183_x_at) / Fold change /veh KRT8 (11758183_x_at) / RFU CNN1 (11734310_a_at) / Fold change /veh CNN1 (11734310_a_at) / RFU VPS37D (11726825_at) / Fold change /veh VPS37D (11726825_at) / RFU C10orf10 (11716522_x_at) / Fold change /veh C10orf10 (11716522_x_at) / RFU KIR2DL2 /// KIR2DL4 /// KIR2DL5A /// KIR2DL5B /// KIR2DS1 /// KIR2DS2 /// KIR2DS3 /// KIR2DS4 /// KIR3DL3 /// KIR3DL3 /// KIR3DS1 (11738374_at) / Fold change /veh KIR2DL2 /// KIR2DL4 /// KIR2DL5A /// KIR2DL5B /// KIR2DS1 /// KIR2DS2 /// KIR2DS3 /// KIR2DS4 /// KIR3DL3 /// KIR3DL3 /// KIR3DS1 (11738374_at) / RFU C1QL1 (11718748_at) / Fold change /veh C1QL1 (11718748_at) / RFU TMPRSS4 (11747572_a_at) / Fold change /veh TMPRSS4 (11747572_a_at) / RFU HAMP (11756126_x_at) / Fold change /veh HAMP (11756126_x_at) / RFU RNFT2 (11725882_a_at) / Fold change /veh RNFT2 (11725882_a_at) / RFU NR4A2 (11747474_a_at) / Fold change /veh NR4A2 (11747474_a_at) / RFU ABCC12 (11746883_a_at) / Fold change /veh ABCC12 (11746883_a_at) / RFU TMEM136 (11760407_x_at) / Fold change /veh TMEM136 (11760407_x_at) / RFU CLDN22 /// WWC2 (11732394_at) / Fold change /veh CLDN22 /// WWC2 (11732394_at) / RFU HLA-DPB1 (11760878_x_at) / Fold change /veh HLA-DPB1 (11760878_x_at) / RFU SPINT1 (11716480_a_at) / Fold change /veh SPINT1 (11716480_a_at) / RFU GAP43 (11754022_s_at) / Fold change /veh GAP43 (11754022_s_at) / RFU A4GNT (11735810_at) / Fold change /veh A4GNT (11735810_at) / RFU PRB3 (11715151_x_at) / Fold change /veh PRB3 (11715151_x_at) / RFU TUBB4B (11761932_at) / Fold change /veh TUBB4B (11761932_at) / RFU CAPN14 (11732068_a_at) / Fold change /veh CAPN14 (11732068_a_at) / RFU TMCC2 (11721928_a_at) / Fold change /veh TMCC2 (11721928_a_at) / RFU IRGQ (11745062_a_at) / Fold change /veh IRGQ (11745062_a_at) / RFU FAM174B (11720279_a_at) / Fold change /veh FAM174B (11720279_a_at) / RFU TMPRSS4 (11748680_a_at) / Fold change /veh TMPRSS4 (11748680_a_at) / RFU FAM212B (11763350_a_at) / Fold change /veh FAM212B (11763350_a_at) / RFU PLEKHG5 (11743358_a_at) / Fold change /veh PLEKHG5 (11743358_a_at) / RFU ZSCAN30 (11745921_a_at) / Fold change /veh ZSCAN30 (11745921_a_at) / RFU CMKLR1 (11741424_a_at) / Fold change /veh CMKLR1 (11741424_a_at) / RFU LOC101060620 /// MAPK8IP1 (11723275_at) / Fold change /veh LOC101060620 /// MAPK8IP1 (11723275_at) / RFU SPTSSB (11747773_x_at) / Fold change /veh SPTSSB (11747773_x_at) / RFU PRSS12 (11739890_at) / Fold change /veh PRSS12 (11739890_at) / RFU BIN1 (11741810_x_at) / Fold change /veh BIN1 (11741810_x_at) / RFU WNT11 (11732464_a_at) / Fold change /veh WNT11 (11732464_a_at) / RFU C10orf10 (11716521_a_at) / Fold change /veh C10orf10 (11716521_a_at) / RFU C5orf56 (11738089_at) / Fold change /veh C5orf56 (11738089_at) / RFU CYB561 (11721691_x_at) / Fold change /veh CYB561 (11721691_x_at) / RFU ANKRD19P (11752326_a_at) / Fold change /veh ANKRD19P (11752326_a_at) / RFU OR2T12 /// OR2T33 /// OR2T8 (11738714_s_at) / Fold change /veh OR2T12 /// OR2T33 /// OR2T8 (11738714_s_at) / RFU VCAN (11748164_a_at) / Fold change /veh VCAN (11748164_a_at) / RFU JSRP1 (11732532_at) / Fold change /veh JSRP1 (11732532_at) / RFU KRTAP10-11 (11738290_x_at) / Fold change /veh KRTAP10-11 (11738290_x_at) / RFU MYO3A (11730013_a_at) / Fold change /veh MYO3A (11730013_a_at) / RFU EBF3 (11725865_a_at) / Fold change /veh EBF3 (11725865_a_at) / RFU CAMK2N1 (11719241_x_at) / Fold change /veh CAMK2N1 (11719241_x_at) / RFU C5orf56 (11738088_a_at) / Fold change /veh C5orf56 (11738088_a_at) / RFU OLFML3 (11715873_a_at) / Fold change /veh OLFML3 (11715873_a_at) / RFU LOC100653217 /// NTM (11731650_a_at) / Fold change /veh LOC100653217 /// NTM (11731650_a_at) / RFU MAPK11 (11762145_a_at) / Fold change /veh MAPK11 (11762145_a_at) / RFU FIZ1 (11724087_x_at) / Fold change /veh FIZ1 (11724087_x_at) / RFU OASL (11726364_x_at) / Fold change /veh OASL (11726364_x_at) / RFU SOX15 (11748057_x_at) / Fold change /veh SOX15 (11748057_x_at) / RFU CD79A (11719716_a_at) / Fold change /veh CD79A (11719716_a_at) / RFU HIST1H1D (11736915_at) / Fold change /veh HIST1H1D (11736915_at) / RFU CASKIN2 (11723855_a_at) / Fold change /veh CASKIN2 (11723855_a_at) / RFU LOC730098 (11760151_x_at) / Fold change /veh LOC730098 (11760151_x_at) / RFU OR4N2 (11742367_at) / Fold change /veh OR4N2 (11742367_at) / RFU PRRT2 (11749266_a_at) / Fold change /veh PRRT2 (11749266_a_at) / RFU SNX32 (11753110_a_at) / Fold change /veh SNX32 (11753110_a_at) / RFU CDHR5 (11726645_a_at) / Fold change /veh CDHR5 (11726645_a_at) / RFU RCAN1 (11760418_a_at) / Fold change /veh RCAN1 (11760418_a_at) / RFU FAM167A (11723789_a_at) / Fold change /veh FAM167A (11723789_a_at) / RFU FAM26E (11764081_at) / Fold change /veh FAM26E (11764081_at) / RFU ISYNA1 (11749810_s_at) / Fold change /veh ISYNA1 (11749810_s_at) / RFU ACY1 (11761880_at) / Fold change /veh ACY1 (11761880_at) / RFU 11764098_at / Fold change /veh 11764098_at / RFU SAMD14 (11745864_x_at) / Fold change /veh SAMD14 (11745864_x_at) / RFU NPB (11741838_a_at) / Fold change /veh NPB (11741838_a_at) / RFU TMPRSS6 (11731388_a_at) / Fold change /veh TMPRSS6 (11731388_a_at) / RFU KRTAP10-2 (11738614_at) / Fold change /veh KRTAP10-2 (11738614_at) / RFU ARHGAP8 /// PRR5-ARHGAP8 (11727945_x_at) / Fold change /veh ARHGAP8 /// PRR5-ARHGAP8 (11727945_x_at) / RFU KRTAP5-7 /// NADSYN1 (11734609_at) / Fold change /veh KRTAP5-7 /// NADSYN1 (11734609_at) / RFU RASL12 (11751679_a_at) / Fold change /veh RASL12 (11751679_a_at) / RFU CDKN2B (11736163_a_at) / Fold change /veh CDKN2B (11736163_a_at) / RFU PRF1 (11729649_at) / Fold change /veh PRF1 (11729649_at) / RFU, ZNF638 /// ZNF638-IT1 / Fold change vs veh, ZNF638 /// ZNF638-IT1 / RFU, PANK3 / Fold change vs veh, PANK3 / RFU, SH3YL1 / Fold change vs veh, SH3YL1 / RFU, ZEB2 / Fold change vs veh, ZEB2 / RFU, NRIP1 / Fold change vs veh, NRIP1 / RFU, PTTG1IP / Fold change vs veh, PTTG1IP / RFU, CAPN2 / Fold change vs veh, CAPN2 / RFU, MED14 / Fold change vs veh, MED14 / RFU, SNORA58 / Fold change vs veh, SNORA58 / RFU, C1orf63 / Fold change vs veh, C1orf63 / RFU, LRRFIP1 / Fold change vs veh, LRRFIP1 / RFU, NDUFAF7 / Fold change vs veh, NDUFAF7 / RFU, SLC12A2 / Fold change vs veh, SLC12A2 / RFU, IBTK / Fold change vs veh, IBTK / RFU, ESF1 / Fold change vs veh, ESF1 / Fold change vs veh, TMEM50B / RFU, TAOK1 / Fold change vs veh, TAOK1 / RFU, ACBD3 / Fold change vs veh, ACBD3 / RFU, TMA16 / Fold change vs veh, TMA16 / RFU, RWDD3 / Fold change vs veh, RWDD3 / RFU, BCAT1 / Fold change vs veh, BCAT1 / RFU, EDEM3 / Fold change vs veh, EDEM3 / RFU, TMEM33 / Fold change vs veh, TMEM33 / RFU, WDR75 / Fold change vs veh, WDR75 / RFU, AHCTF1 / Fold change vs veh, AHCTF1 / RFU, TFRC / Fold change vs veh, TFRC / RFU, ZDHHC17 / Fold change vs veh, ZDHHC17 / RFU, NOM1 / Fold change vs veh, NOM1 / RFU, ARL8B / Fold change vs veh, ARL8B / RFU, ZBTB11 / Fold change vs veh, ZBTB11 / RFU, TAMM41 / Fold change vs veh, TAMM41 / RFU, KIAA1704 /// LOC100996395 / Fold change vs veh, KIAA1704 /// LOC100996395 / RFU, ING1 / Fold change vs veh, ING1 / RFU, TRMT61B / Fold change vs veh, TRMT61B / RFU, FUBP3 / Fold change vs veh, FUBP3 / RFU, TP53 / Fold change vs veh, TP53 / RFU, TNKS2 / Fold change vs veh, TNKS2 / RFU, ZFP14 / Fold change vs veh, ZFP14 / RFU, ACTR2 / Fold change vs veh, ACTR2 / RFU, PPP3R1 / Fold change vs veh, PPP3R1 / RFU, PIK3R1 / Fold change vs veh, PIK3R1 / RFU, HNRNPA1 / Fold change vs veh, HNRNPA1 / RFU, RNF170 / Fold change vs veh, RNF170 / RFU, ZNF28 / Fold change vs veh, ZNF28 / RFU, RNGTT / Fold change vs veh, RNGTT / RFU, OGT / Fold change vs veh, OGT / RFU, BRD1 / Fold change vs veh, BRD1 / RFU, MARS / Fold change vs veh, MARS / RFU, ZNF655 / Fold change vs veh, ZNF655 / RFU, FAHD1 / Fold change vs veh, FAHD1 / RFU, BDP1 / Fold change vs veh, BDP1 / RFU, LRRCC1 / Fold change vs veh, LRRCC1 / RFU, ARID1A / Fold change vs veh, ARID1A / RFU, ZNF146 / Fold change vs veh, ZNF146 / RFU, ZNF330 / Fold change vs veh, ZNF330 / RFU, GPN3 / Fold change vs veh, GPN3 / RFU, C9orf123 / Fold change vs veh, C9orf123 / RFU, N4BP2L2 / Fold change vs veh, N4BP2L2 / RFU, ARFIP1 / Fold change vs veh, ARFIP1 / RFU, FAM179B / Fold change vs veh, FAM179B / RFU, BCL10 / Fold change vs veh, BCL10 / RFU, UHRF1BP1L / Fold change vs veh, UHRF1BP1L / RFU, BET1 / Fold change vs veh, BET1 / RFU, CNOT2 / Fold change vs veh, CNOT2 / RFU, ZNF268 / Fold change vs veh, ZNF268 / Fold change vs veh, ZNF507 / RFU, DGCR2 / Fold change vs veh, DGCR2 / RFU, WDSUB1 / Fold change vs veh, WDSUB1 / Fold change vs veh, HSP90B1 /// MIR3652 / RFU, ADSS / Fold change vs veh, ADSS / RFU, GK / Fold change vs veh, GK / RFU, ZNF148 / Fold change vs veh, ZNF148 / RFU, TAF9 / Fold change vs veh, TAF9 / RFU, SLC1A5 / Fold change vs veh, SLC1A5 / RFU, SLMO2 / Fold change vs veh, SLMO2 / RFU, ABCC4 / Fold change vs veh, ABCC4 / RFU, LOC101060439 /// RAP1B / Fold change vs veh, LOC101060439 /// RAP1B / RFU, RFX7 / Fold change vs veh, RFX7 / RFU, GTPBP10 / Fold change vs veh, GTPBP10 / RFU, CNEP1R1 / Fold change vs veh, CNEP1R1 / RFU, BIVM-ERCC5 /// ERCC5 / Fold change vs veh, BIVM-ERCC5 /// ERCC5 / RFU, ILF3 / Fold change vs veh, ILF3 / RFU 11762660_at / Fold change /veh 11762660_at / RFU VCAN (11757783_s_at) / Fold change /veh VCAN (11757783_s_at) / RFU DDX43 (11728927_at) / Fold change /veh DDX43 (11728927_at) / RFU KRT8 (11758188_x_at) / Fold change /veh KRT8 (11758188_x_at) / RFU NKD1 (11759106_at) / Fold change /veh NKD1 (11759106_at) / RFU SRD5A1 (11742802_a_at) / Fold change /veh SRD5A1 (11742802_a_at) / RFU TPSAB1 /// TPSB2 (11721975_s_at) / Fold change /veh TPSAB1 /// TPSB2 (11721975_s_at) / RFU GSTM3 (11746129_a_at) / Fold change /veh GSTM3 (11746129_a_at) / RFU IL23R (11737362_x_at) / Fold change /veh IL23R (11737362_x_at) / RFU TMEM51 (11727254_a_at) / Fold change /veh TMEM51 (11727254_a_at) / RFU PIWIL2 (11732686_x_at) / Fold change /veh PIWIL2 (11732686_x_at) / RFU ORM1 (11744905_x_at) / Fold change /veh ORM1 (11744905_x_at) / RFU CCDC152 (11743942_at) / Fold change /veh CCDC152 (11743942_at) / RFU ECM1 (11717891_a_at) / Fold change /veh ECM1 (11717891_a_at) / RFU IL23R (11748794_a_at) / Fold change /veh IL23R (11748794_a_at) / RFU TNFAIP8L3 (11732012_x_at) / Fold change /veh TNFAIP8L3 (11732012_x_at) / RFU MBOAT4 (11741988_at) / Fold change /veh MBOAT4 (11741988_at) / RFU 11764193_at / Fold change /veh 11764193_at / RFU TMEM53 (11763286_at) / Fold change /veh TMEM53 (11763286_at) / RFU MAGEB2 (11727129_at) / Fold change /veh MAGEB2 (11727129_at) / RFU TMEM200A (11744735_a_at) / Fold change /veh TMEM200A (11744735_a_at) / RFU CCDC152 (11751479_a_at) / Fold change /veh CCDC152 (11751479_a_at) / RFU FAM211A (11726209_a_at) / Fold change /veh FAM211A (11726209_a_at) / RFU RGS16 (11746705_a_at) / Fold change /veh RGS16 (11746705_a_at) / RFU VCAN (11755009_s_at) / Fold change /veh VCAN (11755009_s_at) / RFU RHOB (11743442_s_at) / Fold change /veh RHOB (11743442_s_at) / RFU RGS16 (11720943_a_at) / Fold change /veh RGS16 (11720943_a_at) / RFU RGS16 (11720944_at) / Fold change /veh RGS16 (11720944_at) / RFU, VPS4B / Fold change vs veh, VPS4B / RFU, CREB1 / Fold change vs veh, CREB1 / RFU, DNAJC13 / Fold change vs veh, DNAJC13 / RFU, GNAQ / Fold change vs veh, GNAQ / RFU, CDK5R1 / Fold change vs veh, CDK5R1 / RFU, ZRANB3 / Fold change vs veh, ZRANB3 / RFU, CUL4A / Fold change vs veh, CUL4A / RFU, CCNY / Fold change vs veh, CCNY / RFU, UFL1 / Fold change vs veh, UFL1 / RFU, COG3 / Fold change vs veh, COG3 / RFU, DIAPH2 / Fold change vs veh, DIAPH2 / RFU, SKA2 / Fold change vs veh, SKA2 / RFU, AFF3 / Fold change vs veh, AFF3 / RFU, LMF1 / Fold change vs veh, LMF1 / RFU, IPO11 / Fold change vs veh, IPO11 / RFU, DFFB / Fold change vs veh, DFFB / RFU, FOXP1 / Fold change vs veh, FOXP1 / RFU, CARD8 / Fold change vs veh, CARD8 / RFU, STRN3 / Fold change vs veh, STRN3 / RFU, ADK / Fold change vs veh, ADK / RFU, RASSF2 / Fold change vs veh, RASSF2 / RFU, WIPF1 / Fold change vs veh, WIPF1 / RFU, LARP1B / Fold change vs veh, LARP1B / RFU, RASA1 / Fold change vs veh, RASA1 / RFU, RB1 / Fold change vs veh, RB1 / RFU, PPFIA1 / Fold change vs veh, PPFIA1 / RFU, MAT2A / Fold change vs veh, MAT2A / RFU, CCT5 / Fold change vs veh, CCT5 / RFU, WDR92 / Fold change vs veh, WDR92 / RFU, CUX1 / Fold change vs veh, CUX1 / RFU, TTC7A / Fold change vs veh, TTC7A / RFU, TMEM135 / Fold change vs veh, TMEM135 / RFU, DEPTOR / Fold change vs veh, DEPTOR / RFU, CPM / Fold change vs veh, CPM / RFU, DNAJB6 / Fold change vs veh, DNAJB6 / RFU, CACNA2D3 / Fold change vs veh, CACNA2D3 / RFU, DTX4 / Fold change vs veh, DTX4 / RFU, TFCP2 / Fold change vs veh, TFCP2 / RFU, GMCL1 /// GMCL1P1 / Fold change vs veh, GMCL1 /// GMCL1P1 / RFU, AEBP2 / Fold change vs veh, AEBP2 / RFU, SNHG1 /// SNORD22 /// SNORD25 /// SNORD26 /// SNORD27 /// SNORD28 /// SNORD29 /// SNORD31 / Fold change vs veh, SNHG1 /// SNORD22 /// SNORD25 /// SNORD26 /// SNORD27 /// SNORD28 /// SNORD29 /// SNORD31 / Fold change (Aza/veh), C12orf56 (ProbeSet 11735607_a_at) / Fold change (ACY-1035/veh), C12orf56 (ProbeSet 11735607_a_at) / Fold change (Aza/veh), FGFR1OP (ProbeSet 11751329_s_at) / Fold change (ACY-1035/veh), FGFR1OP (ProbeSet 11751329_s_at) / Fold change (Aza/veh), VPS36 (ProbeSet 11739960_a_at) / Fold change (ACY-1035/veh), VPS36 (ProbeSet 11739960_a_at) / RFU SYPL1 (11715823_x_at) / Fold change /veh SYPL1 (11715823_x_at) / RFU IGFBP7 (11715501_s_at) / Fold change /veh IGFBP7 (11715501_s_at) / RFU REEP3 (11722064_at) / Fold change /veh REEP3 (11722064_at) / RFU IGLL1 (11728026_x_at) / Fold change /veh IGLL1 (11728026_x_at): dose or concentration left out as unconfirmed
Conditions: ProbeSet 11717876_a_at; LIST D

Q: For `Nc1ncn([C@@H]2O[C@H](CO)[C@@H](O)[C@H]2O)c(=O)n1` [azacitidine], which “RFU, PPFIA1” value is on record?
A: 24.22 RFU
